One test deals with Human Cot (Homo sapiens (Human), UniProt P41279). The test can be described thus: High Throughput Cot Biochemical Assay. The conditions noted are these: Cot HTRF (TR-FRET) biochemical assay.
The next test deals with TNFα. The test can be described thus: Cot Monocyte TNFα Cell Based Assay.
[1] abbreviates: Homo sapiens, Monocyte, read-out: EC50 TNF, LPS-stimulated human monocytes, TNFα.

Like-named read-outs stand apart in the source and are kept apart here.

Human Cot, sequence (P41279 30-397): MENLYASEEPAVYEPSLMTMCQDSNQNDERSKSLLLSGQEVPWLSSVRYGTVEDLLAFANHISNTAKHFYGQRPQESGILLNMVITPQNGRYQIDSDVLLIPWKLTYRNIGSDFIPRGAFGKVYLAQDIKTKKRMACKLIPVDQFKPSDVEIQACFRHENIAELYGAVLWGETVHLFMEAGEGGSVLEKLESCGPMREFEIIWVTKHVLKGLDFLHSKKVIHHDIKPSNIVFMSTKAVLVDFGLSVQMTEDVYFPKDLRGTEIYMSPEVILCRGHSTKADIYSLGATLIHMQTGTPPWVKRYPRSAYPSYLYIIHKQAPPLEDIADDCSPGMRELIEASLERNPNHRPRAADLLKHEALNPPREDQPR

Consider `CC(C)(C)CNc1c(C#N)cnc2c(Cl)cc(N[C@@H](c3ccc4cccnc4c3)c3cn(C4(C(F)(F)F)CC4)nn3)cc12` [Example 698, (S)-8-chloro-4-(neopentylamino)-6-((quinolin-7-yl(1-(1-(trifluoromethyl)cyclopropyl)-1H-1,2,3-triazol-4-yl)methyl)amino)quinoline-3-carbonitrile], for which the IC50 (as a rule, the concentration at which inhibition is half-maximal) against Human Cot (IC50 HTRF) was found to be 27 nM. In the test with TNFα (setting [1]), the EC50 (in general, the midpoint of the concentration-response curve) came to 684 nM.

With `CC(C)(C)CNc1c(C#N)cnc2c(C#N)cc(N[C@H](c3cn(C4(C(F)(F)F)CC4)nn3)c3cccc4c(=O)[nH]ccc34)cc12` [Example 700, (S)-4-(neopentylamino)-6-(((1-oxo-1,2-dihydroisoquinolin-5-yl)(4-(1-1-(trifluoromethyl)-cyclopropyl)-1H-1,2,3-triazol-4-yl)methyl)amino)quinoline-3,8-dicarbonitrile], the IC50 at Human Cot (read-out: IC50 HTRF) came out at 2 nM. The EC50 with TNFα (read-out: EC50 TNF, LPS-stimulated human monocytes, TNFα) came out at 179 nM.

Take `Cc1ncsc1[C@H](Nc1cc(Cl)c2ncc(C#N)c(NCC(C)(C)C)c2c1)c1cn(C2(C3CC3)CC2)nn1` [Example 702, (R)-6-(((1-([1,1′-bi(cyclopropan)]-1-yl)-1H-1,2,3-triazol-4-yl)(4-methylthiazol-5-yl)methyl)amino)-8-chloro-4-(neopentylamino)quinoline-3-carbonitrile]: half-maximal inhibition at Human Cot (IC50 HTRF) (IC50) was put at 4 nM. The EC50 in the test on TNFα (setting [1]) amounted to 188 nM.

`CC(C)(C)CNc1c(C#N)cnc2c(C#N)cc(N[C@H](c3cn(C4(C5CC5)CC4)nn3)c3cccc4cnccc34)cc12` [Example 703, (S)-6-(((1-([1,1′-bi(cyclopropan)]-1-yl)-1H-1,2,3-triazol-4-yl)(isoquinolin-5-yl)methyl)amino)-4-(neopentylamino)quinoline-3,8-dicarbonitrile] showed an IC50 against Human Cot (IC50 HTRF) of 2 nM. Besides, the EC50 with TNFα (setting [1]) was found to be 22 nM.

At Human Cot (IC50 HTRF), `Cc1nc(F)ccc1[C@H](Nc1cc(Cl)c2ncc(C#N)c(NCC(C)(C)C)c2c1)c1nnn(C2(C(F)F)CC2)c1I` [Example 707, (S)-8-chloro-6-(((1-(1-(difluoromethyl)cyclopropyl)-5-iodo-1H-1,2,3-triazol-4-yl)(6-fluoro-2-methylpyridin-3-yl)methyl)amino)-4-(neopentylamino)quinoline-3-carbonitrile] yielded an IC50 of 16 nM. In addition, the EC50 in the test on TNFα (setting [1]) was 230 nM.

The compound `CC(C)(C)CNc1c(C#N)cnc2c(C#N)cc(N[C@@H](c3ccc4cccnc4c3)c3cn(C4(C(F)F)CC4)nn3)cc12` [Example 708, (S)-6-(((1-(1-(difluoromethyl)cyclopropyl)-1H-1,2,3-triazol-4-yl)(quinolin-7-yl)methyl)amino)-4-(neopentylamino)quinoline-3,8-dicarbonitrile] had an IC50 at Human Cot (IC50 HTRF) of 6 nM. In addition, the EC50 in the test with TNFα (setting [1]) is 176 nM.

The compound `CC(C)(C)CNc1c(C#N)cnc2c(Cl)cc(N[C@H](c3cn(C4(C(F)(F)F)CC4)nn3)c3ccc(Cl)c4ncccc34)cc12` [Example 709, (S)-8-chloro-6-(((8-chloroquinolin-5-yl)(1-(1-(trifluoromethyl)cyclopropyl)-1H-1,2,3-triazol-4-yl)methyl)amino)-4-(neopentylamino)quinoline-3-carbonitrile] had an IC50 at Human Cot (IC50 HTRF) of 17 nM. The EC50 in the test with TNFα (setting [1]) was found to be 187 nM.

As for `CC(C)(C)CNc1c(C#N)cnc2c(C#N)cc(N[C@H](c3cn(C4(C(F)(F)F)CC4)nn3)c3ccc(C#N)c4ncccc34)cc12` [Example 710, (S)-6-(((8-cyanoquinolin-5-yl)(1-(1-(trifluoromethyl)cyclopropyl)-1H-1,2,3-triazol-4-yl)methyl)amino)-4-(neopentylamino)quinoline-3,8-dicarbonitrile], at Human Cot (IC50 HTRF), the IC50 was 5 nM. In addition, the EC50 in the test on TNFα (setting [1]) was found to be 148 nM.

`[2H]C([2H])([2H])n1ccc2c([C@H](Nc3cc(Cl)c4ncc(C#N)c(NCC(C)(C)C)c4c3)c3cn(C45CC(C4)C5)nn3)cccc2c1=O` [Example 711, (S)-6-(((1-(bicyclo[1.1.1]pentan-1-yl)-1H-1,2,3-triazol-4-yl)(2-(methyl-d3)-1-oxo-1,2-dihydroisoquinolin-5-yl)methyl)amino)-8-chloro-4-(neopentylamino)quinoline-3-carbonitrile] showed an IC50 against Human Cot (IC50 HTRF) of 2 nM. The EC50 in the test on TNFα (setting [1]) came to 32 nM.

The values above are taken from patent US11066414B2, “Cot modulators and methods of use thereof” (Gilead Sciences, Inc., priority 2015, dated 2021).
